{"source": "patent US20150183737A1", "about": "“COMPOSITIONS AND METHODS FOR SUBSTRATE-SELECTIVE INHIBITION OF ENDOCANNABINOID OXYGENATION” (Vanderbilt University, priority 2012, published 2015)", "key": {"human MGL-His (MAGL)": {"biological_target": "T1, human MGL-His (MAGL) (Homo sapiens, UniProt Q99685)", "T1 construct": "His; made in house; host or cells: E. coli BL21(DE3) pLysS", "T1 sequence (Q99685 1-303)": "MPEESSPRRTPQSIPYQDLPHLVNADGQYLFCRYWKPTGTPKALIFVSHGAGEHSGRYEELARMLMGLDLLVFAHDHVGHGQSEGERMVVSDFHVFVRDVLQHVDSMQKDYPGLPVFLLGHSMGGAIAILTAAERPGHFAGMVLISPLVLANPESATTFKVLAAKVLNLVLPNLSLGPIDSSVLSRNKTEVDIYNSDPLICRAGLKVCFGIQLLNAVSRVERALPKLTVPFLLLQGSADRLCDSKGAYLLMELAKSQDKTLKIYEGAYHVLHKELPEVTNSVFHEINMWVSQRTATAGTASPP", "assay": "MAGL activity (Compound A)", "assay_type": "biochemical", "conditions": "in vitro"}, "humanized rat FAAH": {"biological_target": "T2, humanized rat FAAH (Rattus norvegicus, UniProt P97612, A377T/F194Y/I491V/L192F/S435N/V495M)", "T2 sequence (P97612 30-579 L192F/F194Y/A377T/S435N/I491V/V495M limits assumed)": "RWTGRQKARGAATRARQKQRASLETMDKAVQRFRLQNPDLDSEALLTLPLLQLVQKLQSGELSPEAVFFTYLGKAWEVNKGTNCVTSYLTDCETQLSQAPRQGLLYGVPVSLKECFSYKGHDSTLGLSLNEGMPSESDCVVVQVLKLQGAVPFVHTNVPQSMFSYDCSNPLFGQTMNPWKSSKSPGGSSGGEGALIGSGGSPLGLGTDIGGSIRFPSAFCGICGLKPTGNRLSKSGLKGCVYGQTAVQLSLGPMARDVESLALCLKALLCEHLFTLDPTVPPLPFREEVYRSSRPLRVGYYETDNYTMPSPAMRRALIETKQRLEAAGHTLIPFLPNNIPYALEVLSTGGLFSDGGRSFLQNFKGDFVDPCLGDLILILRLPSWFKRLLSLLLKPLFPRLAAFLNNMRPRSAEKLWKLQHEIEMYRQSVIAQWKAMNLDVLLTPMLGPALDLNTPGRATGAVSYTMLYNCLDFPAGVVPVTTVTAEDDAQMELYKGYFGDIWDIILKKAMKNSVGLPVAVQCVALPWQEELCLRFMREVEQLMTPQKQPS", "assay": "FAAH activity (Compound A)", "assay_type": "biochemical", "conditions": "in vitro"}}}
{"smiles": "COc1ccc2c(c1)c(CC(=O)N1CCOCC1)c(C)n2C(=O)c1ccc(Cl)cc1", "note": "[Compound A, 2-[1-(4-Chloro-benzoyl)-5-methoxy-2-methyl-1H-indol-3-yl]-1-morpholin-4-yl-ethanone]", "values": [{"measurement": "Inhibition of MAGL", "setting": "human MGL-His (MAGL)", "result": "did not inhibit"}, {"measurement": "Inhibition of FAAH", "setting": "humanized rat FAAH", "result": "did not inhibit"}]}
